Test results as given in publication PMC7002416, “Probiotic properties of a phytase producing Pediococcus acidilactici strain SMVDUDB2 isolated from traditional fermented cheese product, Kalarei” (Scientific Reports, 2020).

Tested on: phytase (extracellular phytase from P. acidilactici SMVDUDB2)
Conditions: 0.1-1.8 mM sodium phytate, 0.2 M sodium acetate pH 5.5

Km: 385 µM
Structure (SMILES): O=P(O)(O)O[C@H]1[C@H](OP(=O)(O)O)[C@@H](OP(=O)(O)O)[C@H](OP(=O)(O)O)[C@@H](OP(=O)(O)O)[C@H]1OP(=O)(O)O [sodium phytate]
